The text below walks through data of patent US10519152B2, “Compounds and their use in treating cancer” (AstraZeneca AB, priority 2017, dated 2019).

This experiment addresses T1, recombinant human Estrogen Receptor alpha ligand binding domain, residues 307-554 (ER alpha-LBD (GST)) (Homo sapiens, UniProt P03372).
T1 construct: made in house
T1 sequence (P03372 307-554): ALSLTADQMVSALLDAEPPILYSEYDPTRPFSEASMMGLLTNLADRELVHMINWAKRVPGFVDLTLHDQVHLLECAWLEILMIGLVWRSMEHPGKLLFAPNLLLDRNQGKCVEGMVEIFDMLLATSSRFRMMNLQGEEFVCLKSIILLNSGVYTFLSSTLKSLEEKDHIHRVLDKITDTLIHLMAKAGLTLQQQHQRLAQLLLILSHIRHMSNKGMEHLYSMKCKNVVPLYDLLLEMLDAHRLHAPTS
The experiment can be described thus: ERα binding assay (LanthaScreen TR-FRET competition). The settings on record: TR-FRET competition with Fluormone ES2 tracer, 4 hours at room temperature; single experiment or average of two or more.

For `Cc1ncsc1-c1ccc(CNC(=O)[C@@H]2C[C@@H](O)CN2C(=O)[C@@H](NC(=O)CNCCCCCCCCOc2cc(F)c([C@@H]3c4[nH]c5ccccc5c4C[C@@H](C)N3CC(C)(C)F)c(F)c2)C(C)(C)C)cc1` [Example 147, (2S,4R)-1-((S)-2-(2-((8-(3,5-Difluoro-4-((1R,3R)-2-(2-fluoro-2-methylpropyl)-3-methyl-2,3,4,9-tetrahydro-1H-pyrido[3,4-b]indol-1-yl)phenoxy)octyl)amino)acetamido)-3,3-dimethylbutanoyl)-4-hydroxy-N-(4-(4-methylthiazol-5-yl)benzyl)pyrrolidine-2-carboxamide], the IC50 was determined as 1 nM.
Regarding `Cc1ncsc1-c1ccc(CNC(=O)[C@@H]2C[C@@H](O)CN2C(=O)[C@@H](NC(=O)COCCCCC(=O)N(C)CCOc2cc(F)c([C@@H]3c4[nH]c5ccccc5c4C[C@@H](C)N3CC(C)(C)F)c(F)c2)C(C)(C)C)cc1` [Example 143, (2S,4R)-1-((S)-2-(2-((5-((2-(3,5-Difluoro-4-((1R,3R)-2-(2-fluoro-2-methylpropyl)-3-methyl-2,3,4,9-tetrahydro-1H-pyrido[3,4-b]indol-1-yl)phenoxy)ethyl)(methyl)amino)-5-oxopentyl)oxy)acetamido)-3,3-dimethylbutanoyl)-4-hydroxy-N-(4-(4-methylthiazol-5-yl)benzyl)pyrrolidine-2-carboxamide], the IC50 was determined as 1.1 nM.
Under `Cc1ncsc1-c1ccc(CNC(=O)[C@@H]2C[C@@H](O)CN2C(=O)[C@@H](NC(=O)COc2cccc(COc3cc(F)c([C@@H]4c5[nH]c6ccccc6c5C[C@@H](C)N4CC(C)(C)F)c(F)c3)c2)C(C)(C)C)cc1` [Example 20, (2S,4R)-1-((S)-2-(2-(3-((3,5-difluoro-4-((1R,3R)-2-(2-fluoro-2-methylpropyl)-3-methyl-2,3,4,9-tetrahydro-1H-pyrido[3,4-b]indol-1-yl)phenoxy)methyl)phenoxy)acetamido)-3,3-dimethylbutanoyl)-4-hydroxy-N-(4-(4-methylthiazol-5-yl)benzyl)pyrrolidine-2-carboxamide] stands 1 nM.
Take `Cc1ncsc1-c1ccc([C@H](C)NC(=O)[C@@H]2C[C@@H](O)CN2C(=O)[C@@H](NC(=O)COCCOCCCCOc2cc(F)c([C@@H]3c4[nH]c5ccccc5c4C[C@@H](C)N3CC(C)(C)F)c(F)c2)C(C)(C)C)cc1` [Example 153, (2S,4R)-1-((S)-2-(2-(2-(4-(3,5-Difluoro-4-((1R,3R)-2-(2-fluoro-2-methylpropyl)-3-methyl-2,3,4,9-tetrahydro-1H-pyrido[3,4-b]indol-1-yl)phenoxy)butoxy)ethoxy)acetamido)-3,3-dimethylbutanoyl)-4-hydroxy-N—((S)-1-(4-(4-methylthiazol-5-yl)phenyl)ethyl)pyrrolidine-2-carboxamide]: the IC50 was 0.3 nM.
`Cc1ncsc1-c1ccc(CNC(=O)[C@@H]2C[C@@H](O)CN2C(=O)[C@@H](NC(=O)C(F)(F)OCCOCCCCOc2cc(F)c([C@@H]3c4[nH]c5ccccc5c4C[C@@H](C)N3CC(C)(C)F)c(F)c2)C(C)(C)C)cc1` [Example 121, (2S,4R)-1-((S)-2-(2-(2-(4-(3,5-Difluoro-4-((1R,3R)-2-(2-fluoro-2-methylpropyl)-3-methyl-2,3,4,9-tetrahydro-1H-pyrido[3,4-b]indol-1-yl)phenoxy)butoxy)ethoxy)-2,2-difluoroacetamido)-3,3-dimethylbutanoyl)-4-hydroxy-N-(4-(4-methylthiazol-5-yl)benzyl)pyrrolidine-2-carboxamide]: the IC50 is 0.7 nM.
To `Cc1ncsc1-c1ccc([C@@H](CN(C)C)NC(=O)[C@@H]2C[C@@H](O)CN2C(=O)[C@@H](NC(=O)COCCOCCOCCOc2cc(F)c([C@@H]3c4[nH]c5ccccc5c4C[C@@H](C)N3CC(C)(C)F)c(F)c2)C(C)(C)C)cc1` [Example 107, (2S,4R)-1-[(2S)-2-[[2-[2-[2-[2-[3,5-Difluoro-4-[(1R,3R)-2-(2-fluoro-2-methyl-propyl)-3-methyl-1,3,4,9-tetrahydropyrido[3,4-b]indol-1-yl]phenoxy]ethoxy]ethoxy]ethoxy]acetyl]amino]-3,3-dimethyl-butanoyl]-N-[(1S)-2-(dimethylamino)-1-[4-(4-methylthiazol-5-yl)phenyl]ethyl]-4-hydroxy-pyrrolidine-2-carboxamide] belongs 4 nM; to `Cc1ncsc1-c1ccc(CNC(=O)[C@@H]2C[C@@H](OC(=O)[C@@H]3CCCN3)CN2C(=O)[C@@H](NC(=O)CCCCCCCCCCOc2cc(F)c([C@@H]3c4[nH]c5ccccc5c4C[C@@H](C)N3CC(C)(C)F)c(F)c2)C(C)(C)C)cc1` [Example 33, (3R,5S)-1-((S)-2-(11-(3,5-Difluoro-4-((1R,3R)-2-(2-fluoro-2-methylpropyl)-3-methyl-2,3,4,9-tetrahydro-1H-pyrido[3,4-b]indol-1-yl)phenoxy)undecanamido)-3,3-dimethylbutanoyl)-5-((4-(4-methylthiazol-5-yl)benzyl)carbamoyl)pyrrolidin-3-yl L-prolinate], 8.9 nM; to `Cc1ncsc1-c1ccc(CNC(=O)[C@@H]2C[C@@H](O)CN2C(=O)[C@@H](NC(=O)COCCOCCC(F)(F)CCOc2cc(F)c([C@@H]3c4[nH]c5ccccc5c4C[C@@H](C)N3CC(C)(C)F)c(F)c2)C(C)(C)C)cc1` [Example 127, (2S,4R)-1-((S)-2-(2-(2-((5-(3,5-Difluoro-4-((R,3R)-2-(2-fluoro-2-methylpropyl)-3-methyl-2,3,4,9-tetrahydro-1H-pyrido[3,4-b]indol-1-yl)phenoxy)-3,3-difluoropentyl)oxy)ethoxy)acetamido)-3,3-dimethylbutanoyl)-4-hydroxy-N-(4-(4-methylthiazol-5-yl)benzyl)pyrrolidine-2-carboxamide], 0.5 nM.
As to `Cc1ncsc1-c1ccc(CNC(=O)[C@@H]2C[C@@H](O)CN2C(=O)[C@@H](NC(=O)COCCCOCCCCOc2cc(F)c([C@@H]3c4[nH]c5ccccc5c4C[C@@H](C)N3CC(C)(C)F)c(F)c2)C(C)(C)C)cc1` [Example 129, (2S,4R)-1-((S)-2-(2-(3-(4-(3,5-Difluoro-4-((1R,3R)-2-(2-fluoro-2-methylpropyl)-3-methyl-2,3,4,9-tetrahydro-1H-pyrido[3,4-b]indol-1-yl)phenoxy)butoxy)propoxy)acetamido)-3,3-dimethylbutanoyl)-4-hydroxy-N-(4-(4-methylthiazol-5-yl)benzyl)pyrrolidine-2-carboxamide], the IC50 came to 1 nM.
Turning to `Cc1ncsc1-c1ccc([C@H](C)NC(=O)[C@@H]2C[C@@H](O)CN2C(=O)[C@@H](NC(=O)COCCCCCOCCOc2cc(F)c([C@@H]3c4[nH]c5ccccc5c4C[C@@H](C)N3CC(C)(C)F)c(F)c2)C(C)(C)C)cc1` [Example 157, (2S,4R)-1-((S)-2-(2-((5-(2-(3,5-Difluoro-4-((1R,3R)-2-(2-fluoro-2-methylpropyl)-3-methyl-2,3,4,9-tetrahydro-1H-pyrido[3,4-b]indol-1-yl)phenoxy)ethoxy)pentyl)oxy)acetamido)-3,3-dimethylbutanoyl)-4-hydroxy-N—((S)-1-(4-(4-methylthiazol-5-yl)phenyl)ethyl)pyrrolidine-2-carboxamide], the IC50 turned out to be 0.8 nM.
As to `Cc1ncsc1-c1ccc(CNC(=O)[C@@H]2C[C@@H](O)CN2C(=O)[C@@H](NC(=O)COCCCCCCCOc2cc(F)c([C@@H]3c4[nH]c5ccccc5c4C[C@@H](C)N3CC(C)(C)F)c(F)c2)C(C)(C)C)cc1` [Example 7, (2S,4R)-1-((S)-2-(2-((7-(3,5-Difluoro-4-((1R,3R)-2-(2-fluoro-2-methylpropyl)-3-methyl-2,3,4,9-tetrahydro-1H-pyrido[3,4-b]indol-1-yl)phenoxy)heptyl)oxy)acetamido)-3,3-dimethylbutanoyl)-4-hydroxy-N-(4-(4-methylthiazol-5-yl)benzyl)pyrrolidine-2-carboxamide], the IC50 came out at 1.2 nM.
For the molecule `CC(=O)O[C@@H]1C[C@@H](C(=O)NCc2ccc(-c3scnc3C)cc2)N(C(=O)[C@@H](NC(=O)COCCOCCOCCOc2cc(F)c([C@@H]3c4[nH]c5ccccc5c4C[C@@H](C)N3CC(C)(C)F)c(F)c2)C(C)(C)C)C1` [Example 34, (3R,5S)-1-((S)-2-(tert-Butyl)-14-(3,5-difluoro-4-((1R,3R)-2-(2-fluoro-2-methylpropyl)-3-methyl-2,3,4,9-tetrahydro-1H-pyrido[3,4-b]indol-1-yl)phenoxy)-4-oxo-6,9,12-trioxa-3-azatetradecanoyl)-5-((4-(4-methylthiazol-5-yl)benzyl)carbamoyl)pyrrolidin-3-yl Acetate], the IC50 came out at 0.9 nM.
Consider `Cc1ncsc1-c1ccc(CNC(=O)[C@@H]2C[C@@H](O)CN2C(=O)[C@@H](NC(=O)COCCOCCCCCOc2cnc([C@@H]3c4[nH]c5ccccc5c4C[C@@H](C)N3CC(F)(F)F)c(F)c2)C(C)(C)C)cc1` [Example 165, (2S,4R)-1-((S)-2-(2-(2-((5-((5-Fluoro-6-((1S,3R)-3-methyl-2-(2,2,2-trifluoroethyl)-2,3,4,9-tetrahydro-1H-pyrido[3,4-b]indol-1-yl)pyridin-3-yl)oxy)pentyl)oxy)ethoxy)acetamido)-3,3-dimethylbutanoyl)-4-hydroxy-N-(4-(4-methylthiazol-5-yl)benzyl)pyrrolidine-2-carboxamide], for which the IC50 was determined as 11.4 nM.
To `Cc1ncsc1-c1ccc(CNC(=O)[C@@H]2C[C@@H](O)CN2C(=O)[C@@H](NC(=O)CCCc2ccc(COc3cc(F)c([C@@H]4c5[nH]c6ccccc6c5C[C@@H](C)N4CC(C)(C)F)c(F)c3)nc2)C(C)(C)C)cc1` [Example 141, (2S,4R)-1-((S)-2-(4-(6-((3,5-Difluoro-4-((1R,3R)-2-(2-fluoro-2-methylpropyl)-3-methyl-2,3,4,9-tetrahydro-1H-pyrido[3,4-b]indol-1-yl)phenoxy)methyl)pyridin-3-yl)butanamido)-3,3-dimethylbutanoyl)-4-hydroxy-N-(4-(4-methylthiazol-5-yl)benzyl)pyrrolidine-2-carboxamide] belongs 1.2 nM.

For orientation: IC50 means the midpoint of a concentration-inhibition curve.
